assay: gradient 5% acetonitrile 3 min, to 50% in 2 min, to 85% in 15 min, held 3 min, 100 µL/min; settings: column: Zorbax Extend-C18 2.1 x 50 mm; eluents: water / acetonitrile, 0.1% formic acid
How it was run: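 Retention times of pure standards were taken from adduct peaks that were selected by computer and manually inspected. Over 3 months, mixtures of ~100 molecules were run by HPLC–quadrupole time-of-flight mass spectrometry in positive and negative ionization mode. The Zorbax Extend-C18 column (2.1 × 50 mm, 1.8 μm) ran at 100 μL/min in water and acetonitrile, each containing 0.1% formic acid, with 40 μL dead volume and 900 μL dwell volume.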

Point of comparison: `O=C(NCc1ccccc1)Nc1cnc2c(c1)CCC2`, RP-LC retention time 557 s. Against it:
- CC(C)N1CCN(C(=O)c2ccc(CN3CCN(Cc4ccccc4)C(=O)C3=O)cc2)CC1 — higher, 610 s
- CCOc1ccc(-c2cc3c(=O)n(Cc4nc(-c5ccc(CC)cc5)no4)ncn3n2)cc1 — higher, 1300 s
- COc1ccc(NC(=O)C2CC2)c2ccccc12 — higher, 729 s
- O=C(NCC1CCOCC1)Nc1ccccc1 — higher, 656 s
- CCN1CCCn2nc(C3CCN(C(=O)C4CCCC4)CC3)cc2C1=O — higher, 686 s
- Cc1cccc(-c2nc(-c3ccc4c(c3)nc(C)c(=O)n4C)no2)c1 — higher, 1120 s
- Cc1c(Cl)cccc1Nc1c(-c2ccc3c(c2)OCO3)nc2cnccn12 — higher, 975 s
- O=C(c1ccoc1)N1CCC(Oc2nccnc2N2CCc3ccccc32)C1 (configuration not stated) — higher, 880 s
- O=S(=O)(NCc1nnnn1C1CCCCC1)c1cccs1 — higher, 740 s
- Cc1ccc(NC(=O)C2C(=O)NC3(C)CC2c2ccccc2O3)c(C)c1 (configuration not stated) — higher, 912 s
- CCCn1ccc2oc(C)c(C(=O)NCc3ccc(Cl)cc3)c2c1=O — higher, 814 s
- O=C(c1n[nH]c2c1CCCC2)N1CCN(c2ccc(=O)n(-c3ccc(Cl)cc3)n2)CC1 — higher, 758 s
- Cc1ccc(Cl)cc1NC(=O)c1cccn1Cc1noc(C2CC2)n1 — higher, 1000 s
- Cc1[nH]c(C(=O)N2CCC(CC(=O)NCCN3CCCCCC3)CC2)c(C)c1C — higher, 626 s
- Cc1ccc(NC(=O)C2CCN(S(=O)(=O)c3cc(C(=O)N4CCCC4)cs3)CC2)cc1 — higher, 830 s
- CCOC(=O)CCNC(=O)N1CCOc2ccc(N(C)C)cc2C1 — higher, 583 s
- O=C(NCc1cccs1)c1nnc(-c2ccc(S(=O)(=O)N3CCCCC3)cc2)o1 — higher, 939 s
- CCOc1ccc(-c2cc3c(=O)n(Cc4nc(-c5cccc(Br)c5)no4)ccn3n2)cc1 — higher, 1200 s
- Cc1cccc(C2(O)C(=O)N(CC(=O)N(C)c3ccccc3)c3ccccc32)c1 (configuration not stated) — higher, 614 s
- O=C(Cc1csc(SCC(=O)c2cccs2)n1)Nc1ccc(F)c(Cl)c1 — higher, 923 s
- Cc1cccc(-n2nc3c(c2-n2cccc2)CN(C(=O)c2snnc2C)C3)c1 — higher, 894 s
- Cn1cnc2c(C(=O)N3CCOCC3)nn(-c3ccc(Cl)cc3)c2c1=O — higher, 690 s
- Cn1cc(C2c3nccn3CCCN2C(=O)c2cccn2C)cn1 (configuration not stated) — higher, 564 s
- Cc1c(Cl)cccc1NC(=O)Cn1ccc2sccc2c1=O — higher, 764 s
- CCOC(=O)c1ccc(N2C=C(C#N)S(=O)(=O)c3c(F)cccc32)cc1 — higher, 930 s
- CC(C)[C@@H]1CC[C@@H](C)C[C@@H]1P(=O)(c1ccccc1)c1ccccc1 — higher, 1290 s
- CSc1ccc(CNC(=O)COc2cc(C)nc(N3CCCC3)n2)cc1 — higher, 648 s
- COC(=O)c1c(NCC2CC2)c2cccc(Cl)c2[nH]c1=O — higher, 757 s
- COC(=O)c1ccccc1NC(=O)CSc1nc(C)cc(N2CCOCC2)n1 — higher, 603 s
- O=C(Cn1cnc2cc3c(cc21)OCCO3)NCc1ccc2c(c1)OCCCO2 — higher, 596 s
- Cc1cc(N2CCN(C)CC2)nc2ccc(NC(=S)N(C)Cc3ccccc3)cc12 — higher, 592 s
- CCCC(=O)NC1CCN(c2ccccc2)C1=O (configuration not stated) — higher, 660 s
- O=C1NCCCCCCN(C(=O)Nc2ccccc2F)[C@H]2CCCC[C@@H]12 — higher, 846 s
- c1cc2c(cc1-c1noc(C3CCC3)n1)nnn2CCN1CCCCC1 — higher, 654 s
- CN(C)CCCNC(=O)c1ccc2c(c1)nc1n2CCN(C2CCCCC2)C1=O — higher, 605 s
- Cc1sc2ncnc(SCC(=O)Nc3nc(-c4ccccc4)ns3)c2c1C — higher, 1080 s
- Cn1cccc1C(=O)NCCn1c(=O)n(Cc2ccc(F)cc2)c2cccnc21 — higher, 804 s
- CCN(C(=O)c1cc2c(s1)N(C)CCCC2)C(C)C — higher, 1020 s
- N#CC1=CN(c2ccc3c(c2)CCC3)c2ccccc2S1(=O)=O — higher, 1010 s
- Cc1ccc2c(c1)N(C(=O)Cn1cnc3nc4c(cc3c1=O)CC(C)CC4)CCO2 (configuration not stated) — higher, 888 s
- CN1C(=O)CCCCC1C(=O)N1CCOCC1 (configuration not stated) — lower, 556 s
- COc1ccc(NC(=O)c2cnc(N3CCN(c4ccc(F)cc4)CC3)nc2N)cc1 — higher, 776 s
- COc1ccc(NC(=O)CSc2nnc3c4cc(-c5ccc(C)c(C)c5)nn4ccn23)cc1Cl — higher, 997 s
- CC(NC(=O)c1cccc2c1CCN2C(=O)Nc1ccccc1)c1cccnc1 (configuration not stated) — higher, 643 s
- Cc1ccc(C)c(S(=O)(=O)N2[C@H]3CC[C@@H]2c2cnc(-c4ccccc4)nc2C3)c1 — higher, 1230 s
- O=[N+]([O-])c1cccc(C2Oc3ccccc3C3CC(c4cccnc4)=NN32)c1 (configuration not stated) — higher, 790 s
- C=CCNc1c(C(=O)OC)c(=O)[nH]c2ccc(F)cc12 — higher, 679 s
- Cc1ccc(NC(=O)Cn2cnc(C)c(C)c2=O)c(F)c1 — higher, 667 s
- CCC(=O)Nc1ccc(-n2cnc(C(=O)NCc3ccc(F)cc3Cl)c2)nc1 — higher, 762 s
- CCCS(=O)(=O)c1nc2ccc(NS(=O)(=O)c3ccc(OC)c(OC)c3)cc2s1 — higher, 853 s
- CCCNC(=O)C1CCN(c2ccc(SCC(=O)Nc3ccccc3OC)nn2)CC1 — higher, 611 s
- CC(O)c1nc2c(c(=O)n(C)c(=O)n2C)n1C (configuration not stated) — higher, 622 s
- c1cncc(-c2nc(CC3CCCNC3)no2)c1 (configuration not stated) — higher, 564 s
- CC(C)c1ccc(S(=O)(=O)N2C[C@@H](F)C[C@H]2C(=O)N2CCCCC2)cc1 — higher, 930 s
- COc1cc(CN2CCCC2c2cc(C(C)C)no2)ccc1OCC(N)=O (configuration not stated) — higher, 584 s
- Cc1cccn2cc(C(=O)N3CCN(c4ccc(Cl)cc4)CC3)nc12 — higher, 946 s
- CCc1nncn1C1CCN(S(=O)(=O)c2cc(F)ccc2C)CC1 — higher, 658 s
- COc1ccccc1NC(=O)c1ccc(NS(=O)(=O)c2cc(C)ccc2C)cc1 — higher, 926 s
- CC(C)CC(=O)Nc1cnc(N2CCCCCC2)nc1 — higher, 823 s
- COc1cccc(-c2noc(Cn3c(=O)n(-c4ccccc4F)c(=O)c4sccc43)n2)c1 — higher, 957 s
- COc1ccccc1C(CNC(=O)c1cc(=O)c2cc(C)cc(C)c2o1)N(C)C (configuration not stated) — higher, 659 s
- CCCOc1nc2ccccc2nc1N1CCCC(C(=O)Nc2ccccc2CC)C1 (configuration not stated) — higher, 1320 s
- O=C(c1ccoc1)N1CCC(c2noc(-c3ccncc3)n2)C1 (configuration not stated) — higher, 665 s
- CCC(=O)Nc1cc2c(cc1S(=O)(=O)c1ccccc1)n(C)c(=O)n2C — higher, 710 s
- Cc1ccc(C)c(NC(=O)Cn2cccc2-c2nnc(C3CCC3)o2)c1 — higher, 977 s
- CC(C)n1c(N2CCCN(C(=O)c3ccncc3)CC2)cc(=O)n(C(C)C)c1=O — higher, 621 s
- COc1ccc(-c2csc(NC(=O)NC3CCCC3)n2)cc1 — higher, 861 s
- CCc1nc(OCC(=O)NCc2ccc(OC)cc2)c2ccccc2n1 — higher, 746 s
- O=C(CCNc1cnc2cnccn12)NCc1cccc(C(F)(F)F)c1 — higher, 608 s
- O=C(Cc1ccccc1Cl)N1CCN(c2cc(-c3cccs3)[nH]n2)CC1 — higher, 819 s
- O=C(c1cccc(F)c1)N1CCN(c2cc(-c3cccs3)[nH]n2)CC1 — higher, 774 s
- CCC(C)NC(=O)c1cc(-c2ccc(Cl)cc2)[nH]c1C (configuration not stated) — higher, 923 s
- COc1ccc(S(=O)(=O)N2CCc3nc(-c4ccccc4)ncc3C2)cc1Cl — higher, 1090 s
- O=C(CN1CC(c2nc(-c3cccc(Cl)c3)no2)C1)NCC1CCCO1 (configuration not stated) — higher, 590 s
- CC(O)(CNC(=O)NC1CCCCC1)c1ccc2c(c1)OCO2 (configuration not stated) — higher, 709 s
- Cc1nn(C(C)C)c(C)c1S(=O)(=O)N1CCN(C(=O)CCc2c[nH]c3ccccc23)CC1 — higher, 829 s
- COC(=O)c1c(NCCC(C)C)c2cc(F)ccc2[nH]c1=O — higher, 792 s
- COc1ccc(-n2ccc(=O)c(-c3nc(-c4ccccc4OC)no3)n2)cc1 — higher, 776 s
- COc1ccc(CSc2nccc3c2ccn3CC(=O)NCc2ccc(C)o2)cc1 — higher, 725 s
- O=C(Cc1ccc(Cl)cc1)N1CC(Cc2nncn2CC2CC2)C1 — higher, 686 s
- Cc1ccc(C)c(CNC(=O)C2CC(=O)N(c3ccc4oc(C)nc4c3)C2)c1 (configuration not stated) — higher, 753 s
- CCNc1nccc(N2CCC(CC(=O)NCC(C)C)CC2)n1 — higher, 563 s
- CCOC(=O)CNC(=O)N1CCN(Cc2nc3cc(Cl)ccc3o2)CC1 — higher, 644 s
- COc1ccc(-c2noc(CS(=O)(=O)c3ccc(C)cc3)n2)cc1OC — higher, 990 s
- CCc1nnc(-c2ccc3ccn(CC(=O)N4CCN(c5ccccc5)CC4)c3c2)o1 — higher, 858 s
- CCc1cccc(C)c1NS(=O)(=O)c1ccc(-c2c(C)noc2C)cc1 — higher, 1020 s
- O=C(c1ccc2c(c1)OCO2)N1CCC2(CC1)NC(=O)N(Cc1ccccc1Cl)C2=O — higher, 838 s
- Cc1ccc(Nc2nc(C)cc(N3CCN(C(=O)Nc4ccc(F)c(Cl)c4)CC3)n2)cc1 — higher, 811 s
- CCc1ccc(NC(=O)CSc2nc(N3CCCCC3)nc3ccccc23)cc1 — higher, 809 s
- Cc1ccccc1NC(=O)Nc1c(-c2ccccc2)nc2ccccn12 — higher, 661 s
- COc1ccc(C(C)NC(=O)Cc2c[nH]c3ncccc23)cc1OC (configuration not stated) — higher, 664 s
